Results published in patent US5773421A, “Antifungal fusacandins” (Abbott Laboratories, priority 1995, dated 1998).
Converted amounts (≈) assume the structure as drawn. Read-outs that look alike come from different tables or passages of the source.

Tests used:
[1] = target: T1, (1,3)-β-Glucan Synthase (Candida albicans, UniProt O13428); experiment: In vitro inhibition of (1,3)-β-glucan synthase activity, microsomal enzyme preparation; format: biochemical; conditions: C. albicans CCH 442 microsomal enzyme
T1 construct: microsomal enzyme preparation C. albicans CCH 442; endogenous in cells; host or cells: Candida albicans CCH 442, microsomes
Protocol: The assay was conducted in a final volume of 100 μL of 2.0 mM UDP-[^14 C]-Glc (0.625 mCi/mmol), 1 mM EDTA, 8% (v/v) glycerol, 20 μM GTPgS, 0.5% Brij-35(v/v) or 0.8% BSA, 80 mM Tris/HCl, pH 7.75, and microsomal enzyme preparation C. albicans CCH 442 (100 μg of protein). A detailed description of this assay is described by Frost, D., Brandt, K. Capobioanco, and Goldman, R., Microbiology 140: 2239-2246 (1994) which is incorporated herein by reference.

[2] = MIC by broth dilution assay; format: cell-based; conditions: 144 h, Table 6d, no sorbitol, 2 ×10^5 organisms/mL
Protocol: Minimal inhibitory concentrations (MICs) were determined by a broth dilution assay described by Frost, D., Brandt, K., Cugier, D., and Goldman, R. in J. Antibiotics 48: 306-310 (1995) which is incorporated herein by reference. The final concentration of cells was 2 ×10^5 organisms/mL.

[3] = tested on: Candida albicans CCH 442; experiment: MIC by agar dilution method; format: cell-based; conditions: CCH442; Table 6c, 3rd value column (head printed II); III Candida albicans CCH 442; agar dilution; read-out: MIC II
Protocol: (§1) Minimal inhibitory concentrations (MICs) were determined by an agar dilution method. The test compounds were serially diluted in MeOH and 0.2 mL portions were mixed with 20 mL of molten, cooled Sabouraud dextrose agar (Difco). Yeast cell inoculum was prepared by growing cultures on Sabouraud dextrose agar for 18 hours at 32° C. and suspending the cells in phosphate buffered saline. Filamentous fungi were grown under the same conditions for 4 days to obtain spores. The inoculum level for all cultures was adjusted to 10^4 cells using a Petroff-Hauser cell counter. The glutarimide antifungal compounds cycloheximide or amphotericin B were used as a control. Inoculated test plates were incubated at 32° C. and examined after 20 hours.

[4] = tested on: Candida albicans 579a; experiment: MIC by agar dilution method; format: cell-based; conditions: Table 6c; II Candida albicans 579a; agar dilution; read-out: MIC II
Protocol: as §1

[5] = tested on: Candida albicans ATCC 10231; experiment: MIC by agar dilution method; format: cell-based; conditions: ATCC10231; Table 6c; I Candida albicans ATCC 10231; agar dilution; read-out: MIC I
Protocol: as §1

[6] = tested on: Candida albicans ATCC 38247; experiment: MIC by agar dilution method; format: cell-based; conditions: ATCC38247; Table 6c; IV Candida albicans ATCC 38247; agar dilution; read-out: MIC IV
Protocol: as §1

[7] = tested on: Candida albicans ATCC 62376; experiment: MIC by agar dilution method; format: cell-based; conditions: ATCC62376; Table 6c; V Candida albicans ATCC 62376; agar dilution; read-out: MIC V
Protocol: as §1

T1 sequence (O13428 1-1897): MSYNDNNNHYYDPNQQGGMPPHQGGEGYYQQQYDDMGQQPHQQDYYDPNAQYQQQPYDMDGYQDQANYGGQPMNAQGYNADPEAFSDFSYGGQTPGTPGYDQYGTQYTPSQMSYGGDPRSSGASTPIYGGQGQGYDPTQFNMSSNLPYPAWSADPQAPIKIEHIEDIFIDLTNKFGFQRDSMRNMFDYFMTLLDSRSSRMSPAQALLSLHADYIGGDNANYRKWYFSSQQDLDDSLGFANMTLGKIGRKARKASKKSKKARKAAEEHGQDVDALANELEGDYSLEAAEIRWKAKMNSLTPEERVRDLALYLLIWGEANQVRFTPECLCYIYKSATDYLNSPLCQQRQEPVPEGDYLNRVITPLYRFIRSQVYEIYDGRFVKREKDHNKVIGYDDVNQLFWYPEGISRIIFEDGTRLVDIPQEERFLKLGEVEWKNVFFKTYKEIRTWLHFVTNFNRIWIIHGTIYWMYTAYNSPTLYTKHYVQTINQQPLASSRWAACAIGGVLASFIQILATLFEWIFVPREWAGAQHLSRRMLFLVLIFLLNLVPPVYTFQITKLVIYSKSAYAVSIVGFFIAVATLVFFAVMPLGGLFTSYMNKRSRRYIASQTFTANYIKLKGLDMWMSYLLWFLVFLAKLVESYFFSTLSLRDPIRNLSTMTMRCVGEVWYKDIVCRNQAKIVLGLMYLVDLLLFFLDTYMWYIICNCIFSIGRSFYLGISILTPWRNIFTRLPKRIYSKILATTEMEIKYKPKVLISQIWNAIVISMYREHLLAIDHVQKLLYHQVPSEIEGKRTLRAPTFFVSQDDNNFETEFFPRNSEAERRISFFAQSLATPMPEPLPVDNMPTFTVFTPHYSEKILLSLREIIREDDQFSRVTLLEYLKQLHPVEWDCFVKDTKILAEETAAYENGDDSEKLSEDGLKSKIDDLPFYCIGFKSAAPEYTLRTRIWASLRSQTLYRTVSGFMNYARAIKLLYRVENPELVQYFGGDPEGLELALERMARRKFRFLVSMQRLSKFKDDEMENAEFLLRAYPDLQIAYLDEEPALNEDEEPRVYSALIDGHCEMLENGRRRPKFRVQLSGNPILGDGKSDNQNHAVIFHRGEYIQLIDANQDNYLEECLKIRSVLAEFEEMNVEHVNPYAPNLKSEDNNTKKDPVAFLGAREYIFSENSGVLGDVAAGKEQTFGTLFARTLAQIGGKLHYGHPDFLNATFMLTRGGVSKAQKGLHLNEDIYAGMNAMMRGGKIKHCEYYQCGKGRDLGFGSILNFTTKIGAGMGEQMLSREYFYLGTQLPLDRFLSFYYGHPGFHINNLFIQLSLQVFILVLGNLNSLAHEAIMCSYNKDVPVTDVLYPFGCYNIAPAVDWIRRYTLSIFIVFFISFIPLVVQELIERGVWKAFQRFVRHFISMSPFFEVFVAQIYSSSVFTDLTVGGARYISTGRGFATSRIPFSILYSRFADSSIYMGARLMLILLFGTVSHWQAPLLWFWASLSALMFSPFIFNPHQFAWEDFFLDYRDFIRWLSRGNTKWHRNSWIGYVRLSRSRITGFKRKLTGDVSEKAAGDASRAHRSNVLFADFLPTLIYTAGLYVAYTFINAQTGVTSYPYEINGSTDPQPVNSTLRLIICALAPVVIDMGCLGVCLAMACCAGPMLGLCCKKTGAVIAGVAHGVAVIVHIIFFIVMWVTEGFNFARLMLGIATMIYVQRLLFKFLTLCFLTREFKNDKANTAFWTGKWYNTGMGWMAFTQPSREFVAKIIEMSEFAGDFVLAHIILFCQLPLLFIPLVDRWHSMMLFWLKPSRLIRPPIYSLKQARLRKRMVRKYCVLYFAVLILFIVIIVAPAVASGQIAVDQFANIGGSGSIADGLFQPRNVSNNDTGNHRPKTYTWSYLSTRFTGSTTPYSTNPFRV

Row | SMILES | IC50 ([1]; 0.5% Brij-35, read-out: IC50 With Brij-35 (converted)) | IC50 ([1]; 0.8% BSA, read-out: IC50 With BSA (converted)) | MIC [2] | MIC [3] | MIC [4] | MIC [5] | MIC [6] | MIC [7]
1 | CC/C=C/C/C=C\C=C\C(=O)OC[C@H]1O[C@@H](O[C@H]2[C@H](OC(=O)/C=C/C=C/CC(O)/C=C/C=C/CCCCC)[C@@H](O)[C@H](c3c(O)cc(O)cc3CO)O[C@@H]2CO)[C@H](O[C@@H]2O[C@H](CO)[C@H](O)[C@H](O)[C@H]2O)[C@@H](O)[C@H]1O (stereo partly drawn) [Example 9, fusacandin C] | 35 µM | 194 µM | 1.95 µg/mL (≈ 1.91 µM) |  |  |  |  | 
2 | CCCCC/C=C/C=C/[C@@H](O)C/C=C/C=C/C(=O)O[C@@H]1[C@@H](O)[C@H](c2c(O)cc(O)cc2CO)O[C@H](CO)[C@H]1O[C@@H]1O[C@H](COC(=O)c2ccc(-c3ccccc3)cc2)[C@H](O)[C@H](O)[C@H]1O[C@@H]1O[C@H](CO)[C@H](O)[C@H](O)[C@H]1O [Example 30] |  |  |  | 0.78 µg/mL (≈ 0.741 µM) | 0.78 µg/mL (≈ 0.741 µM) | 0.78 µg/mL (≈ 0.741 µM) | 1.56 µg/mL (≈ 1.48 µM) | 0.78 µg/mL (≈ 0.741 µM)
3 | CCCCC/C=C/C=C/[C@@H](O)C/C=C/C=C/C(=O)O[C@@H]1[C@@H](O)[C@H](c2c(O)cc(O)cc2CO)O[C@H](CO)[C@H]1O[C@@H]1O[C@H](COC(=O)/C=C/c2cc(C(C)(C)C)cc(C(C)(C)C)c2)[C@H](O)[C@H](O)[C@H]1O[C@@H]1O[C@H](CO)[C@H](O)[C@H](O)[C@H]1O [Example 17] |  |  |  | 3.12 µg/mL (≈ 2.8 µM) | 3.12 µg/mL (≈ 2.8 µM) | 6.25 µg/mL (≈ 5.6 µM) | 3.12 µg/mL (≈ 2.8 µM) | 6.25 µg/mL (≈ 5.6 µM)
4 | CCCCC/C=C/C=C/[C@@H](O)C/C=C/C=C/C(=O)O[C@@H]1[C@@H](O)[C@H](c2c(O)cc(O)cc2CO)O[C@H](CO)[C@H]1O[C@@H]1O[C@H](COC(=O)c2ccc(-c3ccc4ccccc4c3)cc2)[C@H](O)[C@H](O)[C@H]1O[C@@H]1O[C@H](CO)[C@H](O)[C@H](O)[C@H]1O [Example 29] |  |  |  | 1.56 µg/mL (≈ 1.41 µM) | 0.78 µg/mL (≈ 0.707 µM) | 1.56 µg/mL (≈ 1.41 µM) | 1.56 µg/mL (≈ 1.41 µM) | 1.56 µg/mL (≈ 1.41 µM)
5 | CCCCC/C=C/C=C/[C@@H](O)C/C=C/C=C/C(=O)O[C@@H]1[C@@H](O)[C@H](c2c(O)cc(O)cc2CO)O[C@H](CO)[C@H]1O[C@@H]1O[C@H](COC(=O)c2ccccc2)[C@H](O)[C@H](O)[C@H]1O[C@@H]1O[C@H](CO)[C@H](O)[C@H](O)[C@H]1O [Example 14] |  |  |  | 12.5 µg/mL (≈ 12.8 µM) | 6.25 µg/mL (≈ 6.4 µM) | 12.5 µg/mL (≈ 12.8 µM) | 6.25 µg/mL (≈ 6.4 µM) | 12.5 µg/mL (≈ 12.8 µM)
6 | CCCCC/C=C/C=C/[C@@H](O)C/C=C/C=C/C(=O)O[C@@H]1[C@@H](O)[C@H](c2c(O)cc(O)cc2CO)O[C@H](CO)[C@H]1O[C@@H]1O[C@H](COC(=O)c2ccc(-c3ccc(OC)cc3)cc2)[C@H](O)[C@H](O)[C@H]1O[C@@H]1O[C@H](CO)[C@H](O)[C@H](O)[C@H]1O [Example 32] |  |  |  | 0.78 µg/mL (≈ 0.72 µM) | 1.56 µg/mL (≈ 1.44 µM) | 0.78 µg/mL (≈ 0.72 µM) | 3.12 µg/mL (≈ 2.88 µM) | 0.78 µg/mL (≈ 0.72 µM)
7 | CCCCC/C=C/C=C/[C@@H](O)C/C=C/C=C/C(=O)O[C@@H]1[C@@H](O)[C@H](c2c(O)cc(O)cc2CO)O[C@H](CO)[C@H]1O[C@@H]1O[C@H](COC(=O)CCCCCCCCC)[C@H](O)[C@H](O)[C@H]1O[C@@H]1O[C@H](CO)[C@H](O)[C@H](O)[C@H]1O [Example 13] |  |  |  | 6.25 µg/mL (≈ 6.08 µM) | 12.5 µg/mL (≈ 12.2 µM) | 12.5 µg/mL (≈ 12.2 µM) | 12.5 µg/mL (≈ 12.2 µM) | 12.5 µg/mL (≈ 12.2 µM)
